# Test results taken from patent publication US8722661B2, “Pyrrolopyrimidone and pyrrolopyridone inhibitors of tankyrase” (Genentech, Inc., priority 2012, dated 2014).
# Key:
# Tankyrase 1 (TNKS1) = target: T1, Tankyrase 1 (TNKS1) (Homo sapiens, UniProt O95271); assay: μHTS-TNKS-IWR2 TR-FRET binding assay (TNKS1)
# T1 construct: construct: 1088-1327, 1266M
# Description: (§1) μHTS-TNKS-IWR2TR-FRET Binding Assay
# (§2) (10 μL/well in BD1536-well plate, a single point)
# Reagents and Stock Solutions
# (§3) Biotin-IWR2: 10 mM Biotin-IWR2 stock in DMSO, stored at −20° C.
# Assay buffer 1a (AB 1a) for TNKS dilution: 50 mM Tris, pH 7.4, 100 mM sodium chloride solution, 1 mM magnesium chloride solution, 1 mM DL-dithiothreitol solution, 0.2 mg/mL bovine serum albumin solution, 0.025% NP-40.
# Assay buffer 1b (AB 1b) for Biotin-IWR2 dilution: 50 mM Tris, pH 7.4, 100 mM sodium chloride solution, 1 mM magnesium chloride solution, 1 mM DL-dithiothreitol solution, 0.2 mg/mL bovine serum albumin solution, 0.05% NP-40
# Assay buffer 1c (AB 1c) for compound dilution: 50 mM Tris, pH 7.4, 100 mM sodium chloride solution, 1 mM magnesium chloride solution, 1 mM DL-dithiothreitol solution, 0.2 mg/mL bovine serum albumin solution
# Assay buffer 2 (AB2) for Eu/APC: 50 mM Tris, pH 7.4, 100 mM sodium chloride solution, 1 mM magnesium chloride solution, 0.2 mg/mL bovine serum albumin solution
# Reagent Stock Solution Preparation
# Prepare BLANK well stock solution: 5% DMSO/AB1b buffer
# Prepare TNKS1 stock solution (5× stock): 300 nM TNKS in AB1a buffer
# (§4) Transfer 3 μL/well above solution (solution 1,2,3) to an empty assay plate (BD1536-well plate) as follows:
# TOTL and cpd wells: Solution 1 (Biotin-IWR2):
# BLNK wells: Solution 2 (No Biotin-IWR2):
# POSITIVE CONTROL wells: Solution 3 (Biotin-IWR2+XAV939)
# (§5) Transfer 3 μL/well of the above diluted compound solutions or compound dilution buffer to the above assay plate.
# (§6) Add 2 μL/well of 300 nM TNKS stock solution (4) to every well in the above assay plate.
# Centrifuge the assay plate at 2100 rpm for 2 minutes.
# (§7) Incubate the assay plate at 26° C. for 30 minutes.
# (§8) Incubate the assay plate at 26° C. for 60 minutes.
# tankyrase 2 (His6-TNKS2) = target: T2, tankyrase 2 (His6-TNKS2) (Homo sapiens, UniProt Q9H2K2); assay: μHTS-TNKS-IWR2 TR-FRET binding assay with His6-TNKS2 in place of TNKS1; settings: Table I
# T2 construct: His6-tankyrase 2 (construct: 934-1166)
# Description: as §1, §2
# (§9) Alternatively, in place of His6-TNKS1 can use either His6-tankyrase 2 (construct: 934-1166) (His6-TNKS2) or His6-PARP1 (full length).
# as §3
# Positive control: 10 mM XAV 939 in DMSO, stored at −20° C.
# (§10) Prepare Biotinylated IWR2 stock solution (3.33× stock) for TOTL and cpd wells: 200 nM Biotin-IWR2 in 5% DMSO/AB1b buffer
# (§11) Prepare POSITIVE CONTROL well stock solution (3.33× stock): 200 nM XAV939 in 200 nM Biotin-IWR2/5% DMSO/AB1b buffer
# (§12) (Alternatively, use TNKS2 or PARP1 stock solutions.)
# (§13) Prepare Eu/APC stock solution (5× stock): 3.5 nM Eu-SA/50 nM APC-His6Ab in AB2 buffer
# (§14) Add 25 μL/well 1.5% DMSO/AB1c buffer in each compound well to the compound concentration at 74 μM in 8.8% DMSO/AB1c buffer or in the 2 μL DMSO CONTROL wells (BLANK, TOTAL and POSITIVE wells) in the compound plate.
# as §4, §5, §6, §7, §8
# (§15) Read the assay plate immediately at excitation wavelength of 330 nm and emission wavelength of […] in time resolved fluorescence mode.
# (§16) Representative compound data for assays are listed below in Table I. Values are in uM.
# [1] = target: T3, PARP1 (His6-PARP1, full length) (Homo sapiens, UniProt P09874); assay: μHTS-TNKS-IWR2 TR-FRET binding assay with His6-PARP1 in place of TNKS1; settings: Table I
# T3 construct: His6-PARP1 (full length)
# Description: as §1, §2, §9, §3
# Positive control: 10 mM […] in DMSO, stored at −20° C.
# as §10, §11, §12, §13, §14, §4, §5, §6, §7, §8, §15, §16
# T3 sequence (P09874 whole entry): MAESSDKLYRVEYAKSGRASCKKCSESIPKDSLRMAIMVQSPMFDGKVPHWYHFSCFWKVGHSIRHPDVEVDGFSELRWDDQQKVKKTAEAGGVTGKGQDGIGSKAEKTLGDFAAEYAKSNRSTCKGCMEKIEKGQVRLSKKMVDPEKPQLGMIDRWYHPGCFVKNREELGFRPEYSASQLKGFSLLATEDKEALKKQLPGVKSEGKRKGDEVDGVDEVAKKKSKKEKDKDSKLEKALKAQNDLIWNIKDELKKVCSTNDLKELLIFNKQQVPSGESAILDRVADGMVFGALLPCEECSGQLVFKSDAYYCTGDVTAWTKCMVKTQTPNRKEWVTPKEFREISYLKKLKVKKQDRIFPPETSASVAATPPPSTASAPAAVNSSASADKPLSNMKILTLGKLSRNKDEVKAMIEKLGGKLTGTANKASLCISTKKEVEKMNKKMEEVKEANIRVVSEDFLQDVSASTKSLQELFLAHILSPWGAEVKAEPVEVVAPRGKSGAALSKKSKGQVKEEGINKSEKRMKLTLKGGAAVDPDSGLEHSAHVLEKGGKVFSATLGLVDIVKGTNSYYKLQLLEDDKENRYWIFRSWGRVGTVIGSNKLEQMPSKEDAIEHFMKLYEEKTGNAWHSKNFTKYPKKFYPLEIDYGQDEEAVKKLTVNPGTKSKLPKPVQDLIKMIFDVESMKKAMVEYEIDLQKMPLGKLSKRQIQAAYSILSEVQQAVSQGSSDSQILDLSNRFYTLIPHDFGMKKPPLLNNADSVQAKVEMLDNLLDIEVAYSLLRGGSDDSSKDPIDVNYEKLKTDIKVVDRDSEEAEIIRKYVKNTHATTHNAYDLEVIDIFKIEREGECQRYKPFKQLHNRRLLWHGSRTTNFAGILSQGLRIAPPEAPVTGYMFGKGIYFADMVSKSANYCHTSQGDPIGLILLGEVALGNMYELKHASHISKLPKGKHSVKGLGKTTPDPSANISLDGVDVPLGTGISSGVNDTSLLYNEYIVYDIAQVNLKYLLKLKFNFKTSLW
# T1 sequence (O95271 1088-1327): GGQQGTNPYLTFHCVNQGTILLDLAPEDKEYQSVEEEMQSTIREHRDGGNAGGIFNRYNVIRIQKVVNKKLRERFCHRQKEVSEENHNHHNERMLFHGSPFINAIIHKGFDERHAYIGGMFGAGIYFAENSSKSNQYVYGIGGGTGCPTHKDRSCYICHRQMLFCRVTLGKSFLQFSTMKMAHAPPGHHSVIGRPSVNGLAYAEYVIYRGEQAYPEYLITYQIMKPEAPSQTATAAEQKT
# T2 sequence (Q9H2K2 934-1166): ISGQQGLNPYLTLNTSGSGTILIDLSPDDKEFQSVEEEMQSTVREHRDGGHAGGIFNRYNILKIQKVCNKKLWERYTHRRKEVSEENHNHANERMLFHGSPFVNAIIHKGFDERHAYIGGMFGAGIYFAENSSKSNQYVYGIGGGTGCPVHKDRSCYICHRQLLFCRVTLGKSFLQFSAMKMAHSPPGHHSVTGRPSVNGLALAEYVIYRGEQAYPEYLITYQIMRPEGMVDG
SMILES,IC50 (Tankyrase 1 (TNKS1)) [nM],IC50 (tankyrase 2 (His6-TNKS2)) [nM],IC50 [1] [nM]
"Cn1ccc2c(=O)[nH]c(N3CCN(c4ccncc4)CC3)nc21 [Example 1, 7-Methyl-2-(4-pyridin-4-yl-piperazin-1-yl)-3,7-dihydro-pyrrolo[2,3-d]pyrimidin-4-one]",722,593,143
"CCOC(=O)c1ccc(N2CCN(c3nc4c(ccn4C)c(=O)[nH]3)CC2)cc1 [Example 2, Ethyl 4-(4-(7-methyl-4-oxo-4,7-dihydro-3H-pyrrolo[2,3-d]pyrimidin-2-yl)piperazin-1-yl)benzoate]",70,66,564
"Cn1ccc2c(=O)[nH]c(N3CCN(c4ccccn4)CC3)nc21 [Example 4, 7-Methyl-2-(4-pyridin-2-yl-piperazin-1-yl)-3,7-dihydro-pyrrolo[2,3-d]pyrimidin-4-one]",134,118,437
"Cn1ccc2c(=O)[nH]c(N3CCN(c4ccc(F)cc4S(C)(=O)=O)CC3)nc21 [Example 5, 2-[4-(4-Fluoro-2-methanesulfonyl-phenyl)-piperazin-1-yl]-7-methyl-3,7-dihydro-pyrrolo[2,3-d]pyrimidin-4-one]",30,35,1180
"Cn1ccc2c(=O)[nH]c(N3CCN(c4cc(Cl)cc(Cl)c4)CC3)nc21 [Example 7, 2-[4-(3,5-Dichloro-phenyl)-piperazin-1-yl]-7-methyl-3,7-dihydro-pyrrolo[2,3-d]pyrimidin-4-one]",494,405,> 50000
"CN1CCN(c2nc3c(ccn3C)c(=O)[nH]2)CC1 [Example 11, 7-Methyl-2-(4-methyl-piperazin-1-yl)-3,7-dihydro-pyrrolo[2,3-d]pyrimidin-4-one]",358,285,471
"Cn1ccc2c(=O)[nH]c(N3CCOCC3)nc21 [Example 12, 7-Methyl-2-morpholin-4-yl-3,7-dihydro-pyrrolo[2,3-d]pyrimidin-4-one]",1910,1830,1720
"CC(=O)N1CCN(c2nc3c(ccn3C)c(=O)[nH]2)CC1 [Example 14, 2-(4-Acetyl-piperazin-1-yl)-7-methyl-3,7-dihydro-pyrrolo[2,3-d]pyrimidin-4-one]",466,427,229
"Cn1ccc2c(=O)[nH]c(N3CCN(c4ccc(C#N)cc4)CC3)nc21 [Example 22, 4-[4-(7-Methyl-4-oxo-4,7-dihydro-3H-pyrrolo[2,3-d]pyrimidin-2-yl)-piperazin-1-yl]-benzonitrile]",97,74,453
"Cn1ccc2c(=O)[nH]c(N3CCN(c4ccc(S(C)(=O)=O)cc4F)CC3)nc21 [Example 24, 2-[4-(2-Fluoro-4-methanesulfonyl-phenyl)-piperazin-1-yl]-7-methyl-3,7-dihydro-pyrrolo[2,3-d]pyrimidin-4-one]",35,47,1280

# Next, values leading:
IC50 (Tankyrase 1 (TNKS1)) [nM],IC50 (tankyrase 2 (His6-TNKS2)) [nM],IC50 [1] [nM],SMILES
42,51,1060,"Cn1ccc2c(=O)[nH]c(N3CCN(c4ccc(Cl)cc4)CC3)nc21 [Example 3, 2-[4-(4-Chloro-phenyl)-piperazin-1-yl]-7-methyl-3,7-dihydro-pyrrolo[2,3-d]pyrimidin-4-one]"
34,36,2210,"Cn1ccc2c(=O)[nH]c(N3CCN(c4ncccc4C(F)(F)F)CC3)nc21 [Example 6, 7-Methyl-2-[4-(3-trifluoromethyl-pyridin-2-yl)-piperazin-1-yl]-3,7-dihydro-pyrrolo[2,3-d]pyrimidin-4-one]"
190,143,339,"Cn1ccc2c(=O)[nH]c(N3CCN(c4ncccn4)CC3)nc21 [Example 8, 7-Methyl-2-(4-pyrimidin-2-yl-piperazin-1-yl)-3,7-dihydro-pyrrolo[2,3-d]pyrimidin-4-one]"
70,63,618,"Cn1ccc2c(=O)[nH]c(N3CCN(c4ncccc4C#N)CC3)nc21 [Example 9, 2-[4-(7-Methyl-4-oxo-4,7-dihydro-3H-pyrrolo[2,3-d]pyrimidin-2-yl)-piperazin-1-yl]-nicotinonitrile]"
111,121,603,"Cn1ccc2c(=O)[nH]c(N3CCN(c4nccnc4C#N)CC3)nc21 [Example 10, 4-(7-Methyl-4-oxo-4,7-dihydro-3H-pyrrolo[2,3-d]pyrimidin-2-yl)-3,4,5,6-tetrahydro-2H-[1,2]bipyrazinyl-3′-carbonitrile]"
112,126,604,"Cn1ccc2c(=O)[nH]c(N3CCN(S(C)(=O)=O)CC3)nc21 [Example 13, 2-(4-Methanesulfonyl-piperazin-1-yl)-7-methyl-3,7-dihydro-pyrrolo[2,3-d]pyrimidin-4-one]"
348,192,3460,"Cn1ccc2c(=O)[nH]c(N3CC(C)(c4ccc(Br)cc4)C3)nc21 [Example 15, 2-[3-(4-Bromo-phenyl)-3-methyl-azetidin-1-yl]-7-methyl-3,7-dihydro-pyrrolo[2,3-d]pyrimidin-4-one]"
915,1070,1260,"Cn1ccc2c(=O)[nH]c(N3CCC(c4ccccc4)C3)nc21 (stereo not drawn) [Example 16, 7-Methyl-2-(3-phenyl-pyrrolidin-1-yl)-3,7-dihydro-pyrrolo[2,3-d]pyrimidin-4-one]"
27,32,1080,"Cn1ccc2c(=O)[nH]c(N3CCN(c4ccc(F)cc4)CC3)nc21 [Example 17, 2-[4-(4-Fluoro-phenyl)-piperazin-1-yl]-7-methyl-3,7-dihydro-pyrrolo[2,3-d]pyrimidin-4-one]"
59,59,758,"Cn1ccc2c(=O)[nH]c(N3CCN(c4cccc(F)c4)CC3)nc21 [Example 18, 2-[4-(3-Fluoro-phenyl)-piperazin-1-yl]-7-methyl-3,7-dihydro-pyrrolo[2,3-d]pyrimidin-4-one]"
43,34,1050,"Cn1ccc2c(=O)[nH]c(N3CCN(c4ccccc4C#N)CC3)nc21 [Example 19, 2-[4-(7-Methyl-4-oxo-4,7-dihydro-3H-pyrrolo[2,3-d]pyrimidin-2-yl)-piperazin-1-yl]-benzonitrile]"
31,36,1220,"Cn1ccc2c(=O)[nH]c(N3CCN(c4ccc(F)cc4F)CC3)nc21 [Example 20, 2-[4-(2,4-Difluoro-phenyl)-piperazin-1-yl]-7-methyl-3,7-dihydro-pyrrolo[2,3-d]pyrimidin-4-one]"
81,90,612,"Cn1ccc2c(=O)[nH]c(N3CCN(c4cccc(C#N)c4)CC3)nc21 [Example 21, 3-[4-(7-Methyl-4-oxo-4,7-dihydro-3H-pyrrolo[2,3-d]pyrimidin-2-yl)-piperazin-1-yl]-benzonitrile]"
28,31,42100,"Cn1ccc2c(=O)[nH]c(N3CCN(c4ccccc4C(F)(F)F)CC3)nc21 [Example 23, 7-Methyl-2-[4-(2-trifluoromethyl-phenyl)-piperazin-1-yl]-3,7-dihydro-pyrrolo[2,3-d]pyrimidin-4-one]"
